Reference: ChEMBL document CHEMBL1158952, “An Nmr Study of Four Benzophenanthridine Alkaloids” (J Nat Prod, 1991)
Activity calls are given as the source filed them.

Assays:
Format in all cases: functional, organism-based
[1] = system: Bacillus subtilis; assay: Antimicrobial activity against Bacillus subtilis ATCC 6633 at 25 ug
[2] = system: Escherichia coli; assay: Antimicrobial activity against Escherichia coli ATCC 25922 at 25 ug
[3] = system: Penicillium oxalicum; assay: Antimicrobial activity against Penicillium oxalicum CBS 219.30 at 25 ug
[4] = system: Micrococcus luteus; assay: Antimicrobial activity against Micrococcus luteus ATCC 9341 at 25 ug

Measured: Activity

COc1cc2c(c3c1-c1ccc4cc5c(cc4c1N(C)C3)OCO5)OCO2
inactive: all assays above

COc1ccc2c(c1OC)CN(C)c1c-2ccc2cc3c(cc12)OCO3
inactive: all assays above

COc1ccc2c(c1OC)CN(C)c1c-2cc(OC)c2cc3c(cc12)OCO3
inactive: all assays above

CN1Cc2c(ccc3c2OCO3)-c2ccc3cc4c(cc3c21)OCO4
inactive: all assays above
